O=S(=O)([O-])c1cccc2ccccc12.[Na+]
solubility (mole fraction)
Conditions | 278.15 K | 283.15 K | 288.15 K | 293.15 K | 298.15 K | 303.15 K | 308.15 K | 313.15 K | 318.15 K | 323.15 K
in 1,4-dioxane | 0.0004 | 0.000497 | 0.000602 | 0.000722 | 0.000842 | 0.00101 | 0.00121 | 0.00143 | 0.00169 | 0.00203
in acetone | 9.36e-05 | 0.000122 | 0.000156 | 0.000197 | 0.00024 | 0.000288 | 0.000351 | 0.000417 | 0.000501 | 0.0006
in cyclohexanone | 0.000222 | 0.000299 | 0.00038 | 0.000481 | 0.000603 | 0.000743 | 0.0009 | 0.00108 | 0.00127 | 0.00152
in ethanol | 0.000297 | 0.000386 | 0.000513 | 0.000668 | 0.000829 | 0.00106 | 0.00132 | 0.00167 | 0.00217 | 0.00277
in ethyl acetate | 4.49e-05 | 5.77e-05 | 7.34e-05 | 9.37e-05 | 0.000119 | 0.000148 | 0.000184 | 0.000227 | 0.000269 | 0.000311
in isopropanol | 0.000108 | 0.000145 | 0.000204 | 0.000275 | 0.000351 | 0.000458 | 0.000588 | 0.000727 | 0.000886 | 0.00109
